Assay results taken from patent US9938301B2, “Dihydropyrimido fused ring derivative as HBV inhibitor” (QILU PHARMACEUTICAL CO., LTD., priority 2014, dated 2018).

Each compound was assayed on HBV DNA in HepG2.2.15 cells (assay: HBV in vitro assay quantitive qPCR test). Settings: Hepatitis B virus, HepG2.2.15, read-out: BIOACTIVITY (inhibitory actions on HBV DNA, EC50).
Assay type: cell-based
Experimental: • 1 Purpose of the test: • The content of HBV DNA in HepG2.2.15 cells was detected by real time quantitive qPCR test to evaluate an inhibitory action of the compound on HBV with an EC50 value of the compound as an indicator. • 2 Experimental materials: • 2.1 Cell lines: HepG2.2.15 Cells • HepG2.2.15 cell culture media (DMEM/F12, Invitrogen-11330057; 10% serum, Invitrogen-10099141; 100 units/ml Penicillin and 10 μg/ml Streptomycin, Invitrogen-15140122; 1% non-essential amino acid, Invitrogen-1140076; 2 mM L-GLUTAMINE, Invitrogen-25030081; 300 μg/ml Geneticin, Invitrogen-10131027 • 2.2 Reagents: • trypsin (Invitrogen-25300062) • DPBS (Hyclone-SH30028.01B) • DMSO (Sigma-D2650-100ML) • High-Throughput DNA Purification Kit (QIAamp 96 DNA Blood Kit, Qiagen-51162) • Quantitative Fast Start Universal Probe Reagent (FastStart Universal Probe Master, Roche-04914058001) • 2.3 Materials and Instruments: • 96-well cell culture plate (Corning-3599) • CO2 Incubator (HERA-CELL-240) • Optical Sealing Membrane (ABI-4311971) • Quantitative PCR 96-well Plate (Applied Biosystems-4306737) • Fluorescent Quantitative PCR Instrument (Applied Biosystems-7500 real time PCR system) • 3. Testing steps and Methods: • 3.1 HepG2.2.15 cells (4×10^4 cells/well) were planted into a 96-well plate, and at 37° C., 5% CO2 cultured overnight. • 3.2 On Day 2, the compounds were diluted in totally 8 concentrations with a dilution gradient of three times. The compounds at different concentrations were added into the culture wells in duplicate. The final concentration of DMSO in the culture media was 1%. 1 μM GLS4 was used as 100% inhibition control; 1% DMSO as 0% inhibition control. • 3.3 On Day 5, replacing with the fresh culture media containing the compound was performed. • 3.4 On Day 8, the culture media in the culture wells was collected, and DNA was extracted with a High-Throughput DNA Purification Kit (Qiagen-51162), See Specification of the product for specific steps. • 3.5 Preparation of PCR Reaction Mixture was shown in Table 1:
• 3.6 To each well of a 96-well PCR plate was added 15 μl reaction mixture, and then to each well was added 10 μl sample DNA or HBV DNA standard. • 3.7 The reaction conditions of PCR were: heating at 95° C. for 10 minutes; then at 95° C. denaturing for 15 seconds, and at 60° C. extending for 1 minute, totally 40 cycles. • 3.8 Data Analysis: • 3.8.1 The inhibition percentage was calculated: % Inh.=[1−(DNA copy number in sample−DNA copy number in 1 μM GLS4)/(DNA copy number in DMSO control−DNA copy number in 1 μM GLS4)]×100. • 3.8.2 Calculating EC50: the concentration of the compound for 50% inhibition of HBV (EC50) was calculated by using GraphPad Prism Software. • 4 Testing Results • The testing results were shown in Table 3: […]

Row | Compound | EC50
1 | COC(=O)C1=C2C[C@H](NS(C)(=O)=O)CN2C(c2nccs2)=N[C@H]1c1sccc1Cl [Example 177] | < 100 nM
2 | COC(=O)C1=C2C[C@H](NP(=O)(OC)OC)CN2C(c2nccs2)=N[C@H]1c1ccc(F)cc1Cl [Example 190] | 100 to 500 nM

Same assay, conditions: Hepatitis B virus, HepG2.2.15, read-out: Concentration for 50% inhibition of HBV (EC50)value

Row | Compound | EC50
3 | COC(=O)C1=C2C[C@H](NS(C)(=O)=O)CN2C(c2nccs2)=N[C@H]1c1sccc1Cl [Example 177] | < 100 nM
4 | COC(=O)C1=C2C[C@H](NP(=O)(OC)OC)CN2C(c2nccs2)=N[C@H]1c1ccc(F)cc1Cl [Example 190] | 100 to 500 nM

Same assay, conditions: Hepatitis B virus; qPCR assay, HepG2.2.15 cells; read-out: Concentration for 50% inhibition of HBV (EC50)value

Row | Compound | EC50
5 | COC(=O)C1=C2C[C@H](NS(=O)(=O)O)CN2C(c2nccs2)=N[C@H]1c1ccc(F)cc1Cl [Example 175] | 1000 to 5000 nM
6 | CCOC(=O)C1=C2CN(CCO)S(=O)(=O)CN2C(c2nccs2)=N[C@H]1c1ccc(F)cc1Cl [Example 176] | 1000 to 5000 nM
7 | COC(=O)C1=C2C[C@@H](NS(C)(=O)=O)CN2C(c2nccs2)=N[C@@H]1c1ccc(F)cc1Cl [Example 178] | 100 to 500 nM
8 | COC(=O)C1=C2C[C@H](N(CC(F)F)S(C)(=O)=O)CN2C(c2nccs2)=N[C@H]1c1ccc(F)cc1Cl [Example 179] | 100 to 500 nM
9 | COC(=O)C1=C2C[C@H](NS(C)(=O)=O)CN2C(c2nccs2)=N[C@H]1c1ccc(F)cc1C [Example 180] | < 100 nM
10 | COC(=O)C1=C2C[C@@H](NS(C)(=O)=O)CN2C(c2nccs2)=N[C@H]1c1ccc(F)cc1Cl [Example 181] | < 100 nM
11 | COC(=O)C1=C2C[C@H](N(CC#N)S(C)(=O)=O)CN2C(c2nccs2)=N[C@H]1c1ccc(F)cc1Cl [Example 182] | < 100 nM
12 | CCN([C@H]1CC2=C(C(=O)OC)[C@H](c3ccc(F)cc3Cl)N=C(c3nccs3)N2C1)S(C)(=O)=O [Example 183] | < 100 nM
13 | COC(=O)C1=C2C[C@H](N(C(C)C)S(C)(=O)=O)CN2C(c2nccs2)=N[C@H]1c1ccc(F)cc1Cl [Example 184] | 100 to 500 nM
14 | COC(=O)C1=C2C[C@H](NS(=O)(=O)OC)CN2C(c2nccs2)=N[C@H]1c1ccc(F)cc1Cl [Example 185] | < 100 nM
15 | COC(=O)C1=C2C[C@H](N(CC(=O)O)S(C)(=O)=O)CN2C(c2nccs2)=N[C@H]1c1ccc(F)cc1Cl [Example 186] | 1000 to 5000 nM
16 | COC(=O)C1=C2C[C@H](N3CCCS3(=O)=O)CN2C(c2nccs2)=N[C@H]1c1ccc(F)cc1Cl [Example 187] | < 100 nM
17 | COC(=O)C1=C2C[C@H](N(CCO)S(C)(=O)=O)CN2C(c2nccs2)=N[C@H]1c1ccc(F)cc1Cl [Example 188] | < 100 nM
18 | COC(=O)C1=C2C[C@H](NS(=O)(=O)c3ccccc3)CN2C(c2nccs2)=N[C@H]1c1ccc(F)cc1Cl [Example 189] | < 100 nM
19 | COC(=O)C1=C2C[C@H](NS(C)(=O)=O)CN2C(c2ncc(F)cc2F)=N[C@H]1c1ccc(F)cc1Cl [Example 191] | < 100 nM
20 | COC(=O)C1=C2C[C@H](N(C)S(N)(=O)=O)CN2C(c2nccs2)=N[C@H]1c1ccc(F)cc1Cl [Example 192] | < 100 nM
21 | COC(=O)C1=C2C[C@H](NS(N)(=O)=O)CN2C(c2nccs2)=N[C@H]1c1ccc(F)c(F)c1F [Example 193] | < 100 nM
22 | COC(=O)C1=C2C[C@H](NS(C)(=O)=O)CN2C(c2nccs2)=N[C@H]1c1ccc(F)cn1 [Example 194] | 1000 to 5000 nM
23 | [H]/N=C(\N)N[C@H]1CC2=C(C(=O)OC)[C@H](c3ccc(F)cc3Cl)N=C(c3nccs3)N2C1 [Example 195] | 1000 to 5000 nM
24 | COC(=O)C1=C2C[C@H](N(O)S(C)(=O)=O)CN2C(c2nccs2)=N[C@H]1c1ccc(F)cc1Cl [Example 196] | 1000 to 5000 nM
25 | COC(=O)C1=C2C[C@H](NS(N)(=O)=O)CN2C(c2nccs2)=N[C@@H]1c1ccc(F)c(F)c1Cl [Example 197] | 1000 to 5000 nM

Same assay, conditions: Hepatitis B virus; summary list of target compounds, Examples 166-220 (values of Table 3); HepG2.2.15 cells; read-out: BIOACTIVITY (inhibitory actions on HBV DNA, EC50)

Row | Compound | EC50
26 | COC(=O)C1=C2C[C@H](NS(=O)(=O)O)CN2C(c2nccs2)=N[C@H]1c1ccc(F)cc1Cl [Example 175] | 1000 to 5000 nM
27 | CCOC(=O)C1=C2CN(CCO)S(=O)(=O)CN2C(c2nccs2)=N[C@H]1c1ccc(F)cc1Cl [Example 176] | 1000 to 5000 nM
28 | COC(=O)C1=C2C[C@@H](NS(C)(=O)=O)CN2C(c2nccs2)=N[C@@H]1c1ccc(F)cc1Cl [Example 178] | 100 to 500 nM
29 | COC(=O)C1=C2C[C@H](N(CC(F)F)S(C)(=O)=O)CN2C(c2nccs2)=N[C@H]1c1ccc(F)cc1Cl [Example 179] | 100 to 500 nM
30 | COC(=O)C1=C2C[C@H](NS(C)(=O)=O)CN2C(c2nccs2)=N[C@H]1c1ccc(F)cc1C [Example 180] | < 100 nM
31 | COC(=O)C1=C2C[C@@H](NS(C)(=O)=O)CN2C(c2nccs2)=N[C@H]1c1ccc(F)cc1Cl [Example 181] | < 100 nM
32 | COC(=O)C1=C2C[C@H](N(CC#N)S(C)(=O)=O)CN2C(c2nccs2)=N[C@H]1c1ccc(F)cc1Cl [Example 182] | < 100 nM
33 | CCN([C@H]1CC2=C(C(=O)OC)[C@H](c3ccc(F)cc3Cl)N=C(c3nccs3)N2C1)S(C)(=O)=O [Example 183] | < 100 nM
34 | COC(=O)C1=C2C[C@H](N(C(C)C)S(C)(=O)=O)CN2C(c2nccs2)=N[C@H]1c1ccc(F)cc1Cl [Example 184] | 100 to 500 nM
35 | COC(=O)C1=C2C[C@H](NS(=O)(=O)OC)CN2C(c2nccs2)=N[C@H]1c1ccc(F)cc1Cl [Example 185] | < 100 nM
36 | COC(=O)C1=C2C[C@H](N(CC(=O)O)S(C)(=O)=O)CN2C(c2nccs2)=N[C@H]1c1ccc(F)cc1Cl [Example 186] | 1000 to 5000 nM
37 | COC(=O)C1=C2C[C@H](N3CCCS3(=O)=O)CN2C(c2nccs2)=N[C@H]1c1ccc(F)cc1Cl [Example 187] | < 100 nM
38 | COC(=O)C1=C2C[C@H](N(CCO)S(C)(=O)=O)CN2C(c2nccs2)=N[C@H]1c1ccc(F)cc1Cl [Example 188] | < 100 nM
39 | COC(=O)C1=C2C[C@H](NS(=O)(=O)c3ccccc3)CN2C(c2nccs2)=N[C@H]1c1ccc(F)cc1Cl [Example 189] | < 100 nM
40 | COC(=O)C1=C2C[C@H](NS(C)(=O)=O)CN2C(c2ncc(F)cc2F)=N[C@H]1c1ccc(F)cc1Cl [Example 191] | < 100 nM
41 | COC(=O)C1=C2C[C@H](N(C)S(N)(=O)=O)CN2C(c2nccs2)=N[C@H]1c1ccc(F)cc1Cl [Example 192] | < 100 nM
42 | COC(=O)C1=C2C[C@H](NS(N)(=O)=O)CN2C(c2nccs2)=N[C@H]1c1ccc(F)c(F)c1F [Example 193] | < 100 nM
43 | COC(=O)C1=C2C[C@H](NS(C)(=O)=O)CN2C(c2nccs2)=N[C@H]1c1ccc(F)cn1 [Example 194] | 1000 to 5000 nM
44 | [H]/N=C(\N)N[C@H]1CC2=C(C(=O)OC)[C@H](c3ccc(F)cc3Cl)N=C(c3nccs3)N2C1 [Example 195] | 1000 to 5000 nM
45 | COC(=O)C1=C2C[C@H](N(O)S(C)(=O)=O)CN2C(c2nccs2)=N[C@H]1c1ccc(F)cc1Cl [Example 196] | 1000 to 5000 nM
46 | COC(=O)C1=C2C[C@H](NS(N)(=O)=O)CN2C(c2nccs2)=N[C@@H]1c1ccc(F)c(F)c1Cl [Example 197] | 1000 to 5000 nM
